The values below come from patent publication US9650664B2, “Use of photocleavable compounds” (FEMTONICS KFT, priority 2011, dated 2017).

Series [1] can be described thus: spontaneous hydrolysis in ACSF. Format: physicochemical. Here is the method:
[…] The solution was sampled at the beginning of the storage and 48 hours later and 4-methoxy-5,7-dinitro-2,3-dihydro-1H-indole was identified from the hydrolysis products by using LCMS method. The compound was identified by the peak of its molecule weight at 240. The sample taken after 48 hours was measured with HPLC equipment. Without correction 46.7% of DNI-Glu*TFA hydrolysed.

Series [2] concerns Hippocampus neurons in CA1 stratum radiatum. The experiment in a line: spontaneous activity of the cell (EPSP frequency), voltage-clamp test. Format: cell-based, Wistar rats. Here is the method: (§1) Acute hippocampus slices were prepared from 16-20 day old Wistar rats using isoflurane anaesthesia followed by swift decapitation. The process was in accordance with the Hungarian Act of Animal Care and Experimentation (1998. XXVIII, section 243). Coronal (300 μm) brain slices were cut with a vibratome and stored at room temperature in artificial cerebrospinal fluid (ACSF). The composition of the ACSF solution is described above.
(§2) Hippocampus neurons in CA1 stratum radiatum near the border of the stratum lacunosum-moleculare were visualized using 900 nm infrared oblique illumination. Current-clamp recordings were made at 32° C. (MultiClamp 700B, Digidata 1440; Molecular Devices, Sunnyvale, Calif., USA) with glass electrodes (6-9 MΩ) filled with (in mM): 125 K-gluconate, 20 KCl, 10 HEPES, 10 Di-Tris-salt phosphocreatine, 0.3 Na-GTP, 4 Mg-ATP, 10 NaCl, 0.06 Oregon Green BAPTA-1 (OGB-1) and biocytin. Cells with a resting membrane potential more negative than −50 mV were accepted. The recorded cells were classified as nonpyramidal cells according to their electrophysiological properties.
A.) Using the test setup of the two-photon excitation process according to Example 16 spontaneous potential changes of the observed cell was measured.
At the beginning of the experiment the control level of potential changes (EPSP) was measured in the absence of DNI-Glu. The measured fluctuation is shown in FIG. 1/A. Following the test DNI-Glu (2.5 mM) was added to the measuring cell. The measured fluctuation is shown in FIG. 1/B. Then 0.1-0.2 unit/ml L-glutamic acid dehydrogenase enzyme and 200 μM NADP (β-Nicotinamide adenine dinucleotide phosphate) were added.
B.) The experiment described in point A.) was repeated 8 times using other cells in each case. The column diagram can be seen on the left side. The average of the control level is shown in column a.). The average of the change due to the caged compound is shown in column b.), while the average level after the addition of the enzyme in column c.).

Series [3] has the same test system. The experiment in a line: two-photon uncaging on acute hippocampus slices with neutralizing agents (EPSP, Ca2+ transient). Format: cell-based, Wistar rats. The settings on record: 2.5 mM. The method, then:
as §1, §2
Two-photon imaging started 15-20 minutes after attaining the whole-cell configuration on a two-photon laser-scanning system (Femto2D, Femtonics Ltd., Budapest) using femtosecond lasers (830-850 nm), Mai Tai HP, SpectraPhysics, Mountain View, Calif.). […]

The conditions of series [4]: according to WO2008/094922; cited from earlier work.
The subject of series [5] is hippocampus neurons. Conditions: according to WO2008/094922; cited from earlier work.
The nature of series [6]: weight increase on storage (hygroscopicity). The series is classed as physicochemical. Conditions: 25° C. 50% relative humidity, after 72 hours storage. The method, then: We measured the weight increase of MNI-Glubase and its salts with hydrochloric and trifluoroacetic acid at 25° C. 50% relative humidity.
Series [7] deals with hippocampal pyramide cell. The experiment in a line: two-photon stimulation of a hippocampal pyramide cell (Example 20). The series is classed as cell-based, Wistar rats. The settings on record: for Calcium tranziens by two-photon stimulation / somatically recorded EPSP by two-photon stimulation: 2.5 mM, 740 nm, with L-glutamic acid dehydrogenase and NADP; for toxicity: pyramid cell response to 500 ms -100, 0 and 125 pA current injection, waveform after stimulation. Here is the method:
as §1, §2
a.) After achieving the whole-cell mode and filling the interneurons with 60 μM OGB-1, the bath solution was exchanged to ACSF containing MNI-Glu-TFA [2.5 mM, Tocris]. Photolysis of MNI-Glu-TFA was performed with 710-830 nm ultrafast, pulsed laser light (Mai Tai HP Deep See, SpectraPhysics, Mountain View, Calif.). The intensity of the uncaging laser beam was controlled with an electro-optical modulator (Model 350-80 LA, Conoptics). Dispersion compensation was set to have maximal response at the depth of uncaging (50-80 μm from surface). The uncaging laser beam was coupled into the imaging optical pathway with a dichroic mirror (custom laser combiner, z750bcm; Chroma Technology Corp, Rockingham, USA). Chromatic aberration was compensated at the focal plane. Radial and axial beam (imaging and photochemical stimulating) alignment errors were held below 100 nm and 300 nm, respectively. Imaging was interleaved with two-photon glutamate uncaging periods, when galvanometers jumped to the maximum 15-25 selected locations (<60 μs jump time) and returned back to the 3D or 2D trajectory thereafter. The position of uncaging sites was finely adjusted according to background images taken. Photolysis of caged glutamate was performed in “clustered” (0.8±0.1 μm distance between inputs) patterns along the dendrite. The single spot uncaging time and laser intensity was set to reproduce uEPSPs and mEPSPs induced by the local application of high osmolar external solution at similar distances from the soma (amplitude of unitary gluEPSP: 0.56±0.09 mV, mEPSPs: 0.58±0.1, uEPSP: 0.55±0.12; exposure time 0.2-0.5 ms/input). Small drifts of the sample (on the order of 0.1-0.2 μm) during the mapping were compensated manually according to regularly taken background images. b.) After the test the perfusion rate was set to 10 ml/min in order to increase the exchange rate of ACSF containing 2.5 mM DNI-Glu*TFA used in the subsequent test. The test was repeated with the same setting of the equipment on the same dendrite section.
The experiment was carried out according to Example 16 with the difference that the cell was filled with calcium sensitive dye (Fluo4) and anatomical dye (ALEXA 594). The experiments were carried out in accordance of the Example 16 with the following differences: after patch clamp the perfusion solution exchange to ACSF containing 2.5 mM iDMPO-DNI-Glutamic acid*2TFA and, or ACSF containing 2.5 mM iDMBO-DNI-Glutamic acid*2TFA, 0.1-0.2 units/ml of L-glutamic acid dehydrogenase and β-Nicotinamide adenine dinucleotide phosphate for the second measurement. The β-Nicotinamide adenine dinucleotide phosphate was kept in a concentration of 50-100 μM during the experiments. All chemical agents (cage compound, dehidrogenase, NADP apply into the bath). During the experiments the evaporation loss of dH2O was continuously refilled. […]

The compound `COc1c([N+](=O)[O-])cc([N+](=O)[O-])c2c1CCN2C(=O)CCC(N)C(=O)O.O=C(O)C(F)(F)F` (stereo not drawn) [DNI-Glu*TFA, trifluoroacetic acid salt of 2-amino-5-(4′-methoxy-5′,7′-dinitro-2′,3′-dihydro-indol-1′-yl)-5-oxo-pentanoic acid] registered a hydrolysed in series [1] (0.06 mg/ml in ACSF, stored at 32° C., 48 hours, HPLC, without correction) of 46.7%. Besides, the “speed of the formation of the glutamic acid” value in series [1] (in 12 ml of ACSF) was 1 µmol/min.

For the compound `COc1c([N+](=O)[O-])cc([N+](=O)[O-])c2c1CCN2C(=O)CCC(N)C(=O)O` (stereo not drawn) [DNI-Glu, 2-amino-5-(4′-methoxy-5′,7′-dinitro-2′,3′-dihydro-indol-1-yl)-5-oxo-pentanoic acid], the “frequency of EPSP / spontaneous responses after addition of glutamate dehydrogenase enzyme” value in series [2] (DNI-Glu 2.5 mM, then L-glutamic acid dehydrogenase and NADP) is listed as “restored to the control level”. In series [2] (DNI-Glu 2.5 mM, enzyme = 0.1-0.2 unit/ml L-glutamic acid dehydrogenase and 200 μM NADP, repeated 8 times, other cells), the “EPSP Frequency MEAN” value was determined as 3.87 Hz. Further, the “frequency of EPSP on addition to the perfusion solution” value in series [2] (DNI-Glu added, no enzyme) is on record as “increased”. Besides, the “excitatory postsynaptic potential (EPSP) resulted by irradiation, compared with MNI-Glu” value in series [3] (FIG. 2/A) is “significantly higher”. In series [3] (FIG. 2/B), the “Ca2+ transient signal as a response of the irradiation, compared with MNI-Glu” value is recorded as “significantly higher”. For the same compound, the “dissolution in physiological solutions” value in series [4] was “so bad”. The “electrical signals in two-photon irradiation experiments” value in series [5] was “no electrical signals”.

Compound `COc1ccc([N+](=O)[O-])c2c1CCN2C(=O)CC[C@H](N)C(=O)O.Cl` [MNI-Glu HCl salt] returned a weight increase in series [6] of 13.6%.

In the case of `COc1ccc([N+](=O)[O-])c2c1CCN2C(=O)CCC(N)C(=O)O.O=C(O)C(F)(F)F` (stereo not drawn) [MNI-Glu trifluoroacetic acid salt], the weight increase in series [6] turned out to be 4%.

In turn, `COc1ccc([N+](=O)[O-])c2c1CCN2C(=O)CCC(N)C(=O)O` (stereo not drawn) [MNI-Glubase, 2-amino-5-(4-methoxy-7-nitro-2,3-dihydro-indol-1-yl)-5-oxo-pentanoic acid] displayed a weight increase in series [6] of 20%.

For the compound “di-trifluoroacetic acid salt of 2-amino-1-(4′-dimethylamino-isobutoxy-5′,7′-dinitro-2′,3′-dihydro-indol-1′-yl)-5-oxo-pentanoic [iDMBO-DNI-Glu TFA]”, in series [7], the “Calcium tranziens by two-photon stimulation” value is given as “the same as Panel (D)”, the “somatically recorded EPSP by two-photon stimulation” value is given as “the same as Panel (D)” and the toxicity result was “not detected”.

Take “di-trifluoroacetic acid salt of 2-amino-1-(4′-dimethylamino-isopropoxy-5′,7′-dinitro-2′,3′-dihydro-indol-1′-yl)-5-oxo-pentanoic [iDMPO-DNI-Glu TFA]”: in series [7], the “Calcium tranziens by two-photon stimulation” value is listed as “could evoke”, the “somatically recorded EPSP by two-photon stimulation” value is reported as “could evoke” and the toxicity result is given as “not detected”.
